{"source": "ChEMBL document CHEMBL1129139", "about": "“Synthesis and activity of staurosporine analogs with a lactone functionality” (Bioorg Med Chem Lett, 1996)", "key": {"Cavia porcellus [1]": {"species_on_record": "Cavia porcellus", "test": "Inhibitory effect of compound was measured for arterial contraction in guinea pig", "type": "functional, organism-based"}, "Cavia porcellus [2]": {"species_on_record": "Cavia porcellus", "test": "Inhibitory effect of compound was measured for platelet aggregation in guinea pig blood", "type": "functional, organism-based"}}, "note": "pIC50: −log10 of the molar value."}
{"smiles": "CN[C@@H]1CC2O[C@@](C)([C@@H]1OC)n1c3ccccc3c3c(CO)c(CO)c4c5ccccc5n2c4c31", "values": [{"measurement": "pIC50", "setting": "Cavia porcellus [1]", "result": 4.52}, {"measurement": "pIC50", "setting": "Cavia porcellus [2]", "result": 5.17}]}
{"smiles": "CO[C@@H]1[C@H](N(C)C)CC2O[C@]1(C)n1c3ccccc3c3c4c(c5c6ccccc6n2c5c31)C(=O)OC4", "values": [{"measurement": "pIC50", "setting": "Cavia porcellus [1]", "result": "< 5.00"}, {"measurement": "pIC50", "setting": "Cavia porcellus [2]", "result": 5.27}]}
{"smiles": "CN[C@@H]1CC2O[C@@](C)([C@@H]1OC)n1c3ccccc3c3c4c(c5c6ccccc6n2c5c31)C(=O)OC4", "values": [{"measurement": "pIC50", "setting": "Cavia porcellus [1]", "result": "< 4.52"}, {"measurement": "pIC50", "setting": "Cavia porcellus [2]", "result": 5.17}]}
{"smiles": "CN[C@@H]1CC2O[C@@](C)([C@@H]1OC)n1c3ccc(O)cc3c3c4c(c5c6cc(O)ccc6n2c5c31)C(=O)OC4", "values": [{"measurement": "pIC50", "setting": "Cavia porcellus [1]", "result": 5.52}, {"measurement": "pIC50", "setting": "Cavia porcellus [2]", "result": 6.40}]}
